Data published in patent US20240043450A1, “NEW COMPOUND” (JANSSEN PHARMACEUTICA NV, priority 2020, published 2024).

Experiments:
[1] = target: T1, NLRP3 (Homo sapiens, UniProt Q96P20); assay: PBMC assay: IL-1β levels in supernatant of LPS-stimulated human PBMCs (MSD); format: cell-based; settings: 30 min compound pre-incubation, 100 ng/ml LPS for 6 hrs, IL-1β in supernatant, read-out: IL-1B IC50
T1 construct: human peripheral blood mononuclear cells (PBMCs) were isolated from blood; endogenous in cells; host or cells: primary human PBMCs from healthy donors
Method: The activity of a compound according to the present invention can be assessed by in vitro methods.
Peripheral venous blood was collected from healthy individuals and human peripheral blood mononuclear cells (PBMCs) were isolated from blood by Ficoll-Histopaque (Sigma-Aldrich, A0561) density gradient centrifugation. After isolation, PBMCs were stored in liquid nitrogen for later use. Upon thawing, PBMC cell viability was determined in growth medium (RPMI media supplemented with 10% fetal bovine serum, 1% Pen-Strep and 1% L-glutamine). […] PBMCs were added at a density of 7.5×10^4 cells per well and incubated for 30 min in a 5% CO2 incubator at 37° C. LPS stimulation was performed by addition of 100 ng/ml LPS (final concentration, Invivogen, tlrl-smlps) for 6 hrs followed by collection of cellular supernatant and the analysis of IL-1β […] and TNF cytokines levels […] via MSD technology according to manufacturers' guidelines (MSD, K15A0H).

[2] = test system: TNF; assay: PBMC assay: TNF cytokine levels in supernatant of LPS-stimulated human PBMCs (MSD); format: cell-based; settings: Homo sapiens, PBMC, 30 min compound pre-incubation, 100 ng/ml LPS for 6 hrs
Method: Peripheral venous blood was collected from healthy individuals and human peripheral blood mononuclear cells (PBMCs) were isolated from blood by Ficoll-Histopaque (Sigma-Aldrich, A0561) density gradient centrifugation. After isolation, PBMCs were stored in liquid nitrogen for later use. Upon thawing, PBMC cell viability was determined in growth medium (RPMI media supplemented with 10% fetal bovine serum, 1% Pen-Strep and 1% L-glutamine). Compounds were spotted in a 1:3 serial dilution in DMSO and diluted to the final concentration in 30 μl medium in 96 well plates (Falcon, 353072). PBMCs were added at a density of 7.5×10^4 cells per well and incubated for 30 min in a 5% CO2 incubator at 37° C. LPS stimulation was performed by addition of 100 ng/ml LPS (final concentration, Invivogen, tlrl-smlps) for 6 hrs followed by collection of cellular supernatant and the analysis of IL-1β […] and TNF cytokines levels […] via MSD technology according to manufacturers' guidelines (MSD, K15A0H).
The IC50 values (for IL-1β) and EC50 values (TNF) were obtained on compounds of the invention/examples, and are depicted in the following table: […]

T1 sequence (Q96P20 whole entry): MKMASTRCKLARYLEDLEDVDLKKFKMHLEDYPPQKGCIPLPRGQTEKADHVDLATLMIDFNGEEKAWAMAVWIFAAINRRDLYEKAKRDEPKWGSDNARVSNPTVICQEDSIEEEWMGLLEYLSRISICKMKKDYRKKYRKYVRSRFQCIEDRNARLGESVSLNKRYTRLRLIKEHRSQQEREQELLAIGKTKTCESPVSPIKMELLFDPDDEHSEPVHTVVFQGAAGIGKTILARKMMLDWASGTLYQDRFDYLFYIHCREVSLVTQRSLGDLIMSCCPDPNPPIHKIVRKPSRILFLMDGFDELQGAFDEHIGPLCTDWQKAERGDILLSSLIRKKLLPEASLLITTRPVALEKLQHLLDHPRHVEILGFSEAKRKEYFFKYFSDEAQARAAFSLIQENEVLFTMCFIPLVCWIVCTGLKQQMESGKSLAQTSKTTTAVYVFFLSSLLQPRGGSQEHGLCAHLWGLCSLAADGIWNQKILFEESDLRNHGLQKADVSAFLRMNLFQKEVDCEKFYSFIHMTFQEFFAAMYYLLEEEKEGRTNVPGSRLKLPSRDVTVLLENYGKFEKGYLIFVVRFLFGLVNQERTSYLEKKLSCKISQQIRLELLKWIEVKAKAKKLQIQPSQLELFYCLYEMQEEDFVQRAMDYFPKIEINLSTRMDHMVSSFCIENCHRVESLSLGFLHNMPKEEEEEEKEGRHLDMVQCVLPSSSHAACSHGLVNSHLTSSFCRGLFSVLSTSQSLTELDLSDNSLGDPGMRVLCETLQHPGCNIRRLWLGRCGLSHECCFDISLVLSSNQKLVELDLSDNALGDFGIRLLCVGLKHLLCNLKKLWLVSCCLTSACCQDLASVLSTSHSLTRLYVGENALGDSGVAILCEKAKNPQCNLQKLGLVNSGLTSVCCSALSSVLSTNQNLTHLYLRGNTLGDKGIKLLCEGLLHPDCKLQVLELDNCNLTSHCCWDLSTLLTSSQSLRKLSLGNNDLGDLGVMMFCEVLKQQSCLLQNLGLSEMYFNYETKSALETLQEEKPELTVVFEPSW

SMILES | melting point [°C] | IC50 [1] [nM] | EC50 [2] [nM]
O=C(Cn1nc(C2CC2)c2nc(C3CC3)sc2c1=O)Nc1ccc2nncn2c1 [F-26] | 285 | 126 | 10800
CCc1nc2c(C(C)C)nn(CC(=O)Nc3ccncn3)c(=O)c2s1 [F-8, 2-(2-ethyl-4-isopropyl-7-oxo-thiazolo[4,5-d]pyridazin-6-yl)-N-pyrimidin-4-yl-acetamide] | 186 | 181 | 9200
CC(C)c1nn(CC(=O)Nc2ccc3nncn3c2)c(=O)c2sc(C3COC3)nc12 [F-24] | 151.3 | 567 | > 20000
CC(C)c1nn(CC(=O)Nc2ccc3nnc(C(F)(F)F)n3n2)c(=O)c2sc(C3CC3)nc12 [F-49, 2-(2-cyclopropyl-4-isopropyl-7-oxo-thiazolo[4,5-d]pyridazin-6-yl)-N-[3-(trifluoromethyl)-[1,2,4]triazolo[4,3-b]pyridazin-6-yl]acetamide] | 223.8 | 462 | > 20000
CC(C)c1nn(CC(=O)Nc2ccn3ccnc3n2)c(=O)c2sc(C3CC3)nc12 [F-34] | 258 | 692 | 8260
CCc1nc2c(C(C)C)nn(CC(=O)Nc3ccc4nncn4c3)c(=O)c2s1 [F-9] | 284.6 | 95 | 18000

Further lines, results first:

melting point [°C] | IC50 [1] [nM] | EC50 [2] [nM] | SMILES
280.9 | 265 | > 20000 | CC(C)c1nn(CC(=O)Nc2cc(Br)c3nncn3c2)c(=O)c2sc(C3CC3)nc12 [F-41, N-(8-bromo-[1,2,4]triazolo[4,3-a]pyridin-6-yl)-2-(2-cyclopropyl-4-isopropyl-7-oxothiazolo[4,5-d]pyridazin-6(7H)-yl)acetamide]
292.7 | 443 | > 20000 | CC(C)c1nn(CC(=O)Nc2cc(F)[nH]c(=O)c2)c(=O)c2sc(C3CC3)nc12 [F-55]
194.9 | 102 | 9620 | CC(C)c1nn(CC(=O)Nc2ccc3ncoc3c2)c(=O)c2sc(C3CC3)nc12 [F-43]
